{"source": "ChEMBL document CHEMBL1201862", "about": "“PubChem BioAssay data set” (2004)", "key": {"[1]": {"target": "Trypsin (Sus scrofa, UniProt P00761)", "assay": "porcine trypsin inhibitors, dose response, selectivity assay for Rce1 protease inhibitor project, biochemical, quenched peptide fluorescence, cherry-pick (AID 488789)"}, "[2]": {"assay": "growth suppression of PTEN-null colon cells, dose response, cell-based, HCT116 PTEN knockout (AID 1047);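 further: cells exposed to compound for 60 hours before readout; potency for loss of cell viability measured by luminescence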", "type": "functional"}, "[3]": {"assay": "NIH-3T3 fibroblast cytotoxicity, dose response, cytotoxicity control, cell-based, fluorescence, Alamar Blue, secondary assay (AID 2327);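 further: NIH-3T3 mouse fibroblasts cultured with fluconazole at 8 µg/mL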", "type": "functional"}, "[4]": {"assay": "growth suppression of beta-catenin-knockout colon cells, dose response, cell-based, HCT116, human colon tumor (AID 1045);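 further: cells exposed to compound for 60 hours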", "type": "functional"}, "[5]": {"assay": "C. albicans growth with fluconazole, confirmation, fluorescence, retest (AID 2467)", "type": "functional, cell-based"}, "[6]": {"target": "Beta-galactosidase (Escherichia coli, UniProt Q8VNN2)", "assay": "beta-galactosidase enzyme inhibitors and activators, dose response, artefact control for CCR6 antagonist project, biochemical, E. coli enzyme, set 3 (AID 504712)", "type": "functional"}, "[7]": {"assay": "Luminescence Cell-Based Dose Response HTS to Identify Activators of Luciferase Translation or Activity in H4 […] Cells. [Related pubchem assays: 1829 (Project Summary), 1814 (Primary HTS)]", "type": "functional"}, "[8]": {"system": "H4", "assay": "Luminescence Cell-Based Dose Response HTS to Identify Activators of 5'UTR Stem-Loop Driven Prion Protein mRNA Translation in H4 Neuroglioblastoma Cells. [Related pubchem assays: 1829 (Project Summary), 1814 (Primary HTS)]", "type": "functional", "details": "Homo sapiens"}, "[9]": {"assay": "Luminescence Cell-Based Dose Confirmation HTS to Identify Activators of 5'UTR Stem-Loop Driven Alpha-Synuclein mRNA Translation in H4 Neuroglioblastoma Cells. [Related pubchem assays: 1829 (Project Summary), 1814 (Primary HTS)]", "type": "functional"}, "[10]": {"target": "Protein Wnt-3a (Mus musculus, UniProt P27467)", "assay": "Wnt3a-driven reporter signaling inhibition, dose response, selectivity assay for Gli-SUFU antagonist project, Wnt-LIGHT cells, luminescence (AID 651570);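 further: Wnt-LIGHT reporter cells stimulated with conditioned medium from Wnt3a-producing cells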", "type": "functional", "details": "read-out: IC50_Mean"}, "[11]": {"target": "T1, COUP transcription factor 2 (Homo sapiens, UniProt P24468)", "T1 sequence (P24468 whole entry)": "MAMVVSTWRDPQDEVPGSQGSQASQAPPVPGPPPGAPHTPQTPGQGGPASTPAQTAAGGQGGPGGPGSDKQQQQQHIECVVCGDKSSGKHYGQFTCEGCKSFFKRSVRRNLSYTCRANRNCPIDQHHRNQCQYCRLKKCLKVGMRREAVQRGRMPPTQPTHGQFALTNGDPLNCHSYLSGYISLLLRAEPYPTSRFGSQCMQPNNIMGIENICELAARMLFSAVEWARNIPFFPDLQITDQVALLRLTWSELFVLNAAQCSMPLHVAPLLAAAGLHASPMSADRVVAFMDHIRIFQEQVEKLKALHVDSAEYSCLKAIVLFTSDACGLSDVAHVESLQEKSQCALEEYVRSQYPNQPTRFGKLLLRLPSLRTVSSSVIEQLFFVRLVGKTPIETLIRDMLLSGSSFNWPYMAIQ", "assay": "Luminescence-based cell-based high throughput dose response assay to identify inhibitors of COUP-TFII (NR2F2).", "type": "functional"}, "[12]": {"assay": "HepG2 cell cytotoxicity, dose response, cytotoxicity control for Shn3 inhibitor project, CellTiter-Glo, cherry-picked (AID 624134)", "type": "functional, cell-based"}, "[13]": {"assay": "Luminescence-based counterscreen assay for KLF5 inhibitors: dose response cell-based high throughput screening assay to identify cytotoxic compounds using the IEC-6 intestinal epithelial cell line. [Related pubchem assays: 1700 (Primary screen.), 1834 (Confirmation screen.), 1858 (Summary AID.), 1905 (Counterscreen.)]", "type": "functional"}, "[14]": {"assay": "control 3'UTR Renilla luciferase suppression, dose response, counter-screen for Shn3 inhibitor project, cell-based, Clone20-Shn3RL, cherry-picked (AID 624133)", "type": "functional"}, "[15]": {"assay": "M. tuberculosis H37Rv growth inhibitors, H37Rv strain (AID 1626)", "type": "functional"}, "[16]": {"assay": "Luminescence Cell-Based Dose Retest to Confirm Inhibitors of Cancer Stem Cells. [Related pubchem assays (depositor defined):AID2717, AID2721]", "type": "functional", "details": "Homo sapiens"}, "[17]": {"target": "T2, Protein Tat (Human immunodeficiency virus type 1 group M subtype B (isolate HXB2)(HIV-1), UniProt P04608)", "T2 sequence (P04608 whole entry)": "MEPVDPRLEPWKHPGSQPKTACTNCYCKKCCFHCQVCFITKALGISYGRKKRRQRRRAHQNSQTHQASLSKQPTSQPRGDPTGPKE", "type": "functional"}, "[18]": {"assay": "inhibitors of Vif binding to APOBEC3G peptide, primary screen, biochemical, TR-FRET, GST-Vif 1-94, biotin-A3G peptide, dose response retest (AID 1117319);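 further: TR-FRET signal of purified GST-Vif binding a biotinylated A3G peptide; inhibitors lower the FRET signal by blocking Vif and A3G binding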", "type": "functional"}, "[19]": {"target": "T3, CAAX prenyl protease 2 (Saccharomyces cerevisiae S288c, UniProt Q03530)", "T3 sequence (Q03530 whole entry)": "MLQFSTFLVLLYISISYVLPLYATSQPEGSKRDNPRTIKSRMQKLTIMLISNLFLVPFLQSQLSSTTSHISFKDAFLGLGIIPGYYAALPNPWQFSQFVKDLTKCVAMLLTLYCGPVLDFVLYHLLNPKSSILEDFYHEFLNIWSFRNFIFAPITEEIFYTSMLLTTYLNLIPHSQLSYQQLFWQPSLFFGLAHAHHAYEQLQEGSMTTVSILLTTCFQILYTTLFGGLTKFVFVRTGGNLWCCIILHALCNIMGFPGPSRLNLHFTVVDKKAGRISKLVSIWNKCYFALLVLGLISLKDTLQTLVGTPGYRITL", "type": "biochemical"}, "[20]": {"target": "T4, Bcl-2-like protein 10 (Homo sapiens, UniProt Q9HD36)", "T4 sequence (Q9HD36 whole entry)": "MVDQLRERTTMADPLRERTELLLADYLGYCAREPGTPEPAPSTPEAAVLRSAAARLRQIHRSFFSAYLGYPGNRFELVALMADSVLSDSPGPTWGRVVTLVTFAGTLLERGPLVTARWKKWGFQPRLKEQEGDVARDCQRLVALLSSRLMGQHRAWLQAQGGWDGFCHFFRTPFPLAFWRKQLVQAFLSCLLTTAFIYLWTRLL", "assay": "displacers of TR3 peptide from Bcl-B, primary screen, selectivity assay for Bfl-1 inhibitor project, biochemical, fluorescence polarization, FITC-TR3 peptide (AID 748);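 further: fluorescence polarization from a fluorescein-labelled TR3 peptide binding purified Bcl-B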"}, "[21]": {"assay": "cells"}, "[22]": {"target": "Major prion protein (Homo sapiens, UniProt P04156)", "type": "functional, cell-based"}, "[23]": {"assay": "inhibitors of PGC1a acetylation in cells, dose response, cell-based, cherry-picked samples (AID 720514);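 further: potency may reflect raised or lowered acetylation signal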", "type": "functional"}}, "note": "The source made the active and inactive calls.", "data": [{"smiles": "O=C(COc1ccccc1)Nc1cccc(-c2nc3cc4ccccc4cc3[nH]2)c1", "values": [{"measurement": "AC50", "setting": "[1]", "result": "5.74 µM (active)"}, {"measurement": "EC50", "setting": "[2]", "result": "11.8 µM (active)"}, {"measurement": "EC50", "setting": "[3]", "result": "7.43 µM (active)"}, {"measurement": "EC50", "setting": "[4]", "result": "12.1 µM (active)"}, {"measurement": "EC50", "setting": "[5]", "result": "1.64 µM (active)"}]}, {"smiles": "CCCC(=O)N1c2ccccc2C(=C2SC(C(=O)OC)=C(C(=O)OC)S2)C(=S)C1(C)C", "values": [{"measurement": "IC50", "setting": "[6]", "result": "> 66.6 µM (inactive)"}, {"measurement": "EC50", "setting": "[7]", "result": "> 120 µM (not active)"}, {"measurement": "EC50", "setting": "[8]", "result": "> 120 µM (not active)"}, {"measurement": "EC50", "setting": "[9]", "result": "> 60 µM (not active)"}]}, {"smiles": "CC(C)CC(NC(=O)CCCNC(=O)CCC(=O)OC1O[C@H]2OC3(C)CC[C@H]4[C@H](C)CCC(C1C)C24OO3)C(=O)O", "note": "(stereo partly drawn)", "values": [{"measurement": "IC50", "setting": "[10]", "result": "0.304 µM (active)"}, {"measurement": "IC50", "setting": "[11]", "result": "> 85.4 µM (inactive)"}, {"measurement": "AC50", "setting": "[12]", "result": "> 70 µM (inactive)"}, {"measurement": "IC50", "setting": "[13]", "result": "31.8 µM (not active)"}, {"measurement": "AC50", "setting": "[14]", "result": "5.65 µM (active)"}]}, {"smiles": "CCCc1ccc(-c2cc(C(=O)NC3=NCCS3)c3ccccc3n2)cc1", "values": [{"measurement": "IC50", "setting": "[15]", "result": "> 100 µM (active)"}]}, {"smiles": "COCCNc1nnc(SC(C)C(=O)Nc2ccc(-c3nc4ccc(C)cc4s3)cc2)s1", "note": "(stereo not drawn)", "values": [{"measurement": "EC50", "setting": "[2]", "result": "30 µM (active)"}, {"measurement": "AC50", "setting": "[16]", "result": "10.5 µM (active)"}, {"measurement": "IC50", "setting": "[17]", "result": "> 100 µM (active)"}, {"measurement": "IC50", "setting": "[18]", "result": "> 50 µM (active)"}, {"measurement": "EC50", "setting": "[4]", "result": "39.1 µM (active)"}]}, {"smiles": "COc1cc2cc(C(=O)O)[nH]c2c(OC)c1OC", "values": [{"measurement": "AC50", "setting": "[1]", "result": "23 µM (active)"}, {"measurement": "AC50", "setting": "[19]", "result": "> 100 µM (inactive)"}]}, {"smiles": "COc1ccc(Nc2cc(C)nc3nc(C)nn23)cc1Cl", "values": [{"measurement": "IC50", "setting": "[20]", "result": "> 100 µM (inactive)"}]}, {"smiles": "COC(=O)CSc1nc(Cc2ccccc2)nc2ccccc12", "values": [{"measurement": "IC50", "setting": "[21]", "result": "> 138 µM (inactive)"}, {"measurement": "IC50", "setting": "[22]", "result": "3.29 µM (active)"}]}, {"smiles": "CCc1ccc(NC(=O)CSc2nnc(-c3cnccn3)n2Cc2ccco2)cc1", "values": [{"measurement": "AC50", "setting": "[23]", "result": "32.5 µM (active)"}]}, {"smiles": "NC(=O)c1ccc(-c2ccc(Br)cc2)o1", "values": [{"measurement": "IC50", "setting": "[21]", "result": "> 138 µM (inactive)"}, {"measurement": "IC50", "setting": "[22]", "result": "7.42 µM (active)"}]}]}
